Experimental data published in PubChem BioAssay AID1259411 (Chemical Carcinogenesis Research Information System (CCRIS), 2018).
The source made the active and inactive calls. How the calls were made is not given here.

System: rodent carcinogenicity bioassays, tumor incidence
Assay: CCRIS carcinogenicity studies
Summary of the method: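 Archive of carcinogenicity, mutagenicity, tumor promotion and tumor inhibition results drawn from journals, NCI reports and other sources, expert-reviewed; covers 1985-2011 and is no longer updated.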

## C=Cc1ccccc1
Species: MOUSE, Strain/Sex: B6C3F1/FEMALE, Route: GAVAGE, Dose: 0, 150, 300 MG/KG FOR 78 WK (STUDY DURATION: 91 WK), Dose: 0, 150, 300 MG/KG FOR 78 WK (STUDY DURATION: 91 WK)
  carcinogen call: inactive; negative
Species: MOUSE, Strain/Sex: B6C3F1/MALE, Route: GAVAGE, Dose: 0, 150, 300 MG/KG FOR 78 WK (STUDY DURATION: 91 WK), Dose: 0, 150, 300 MG/KG FOR 78 WK (STUDY DURATION: 91 WK), Tumor Site: Type of Lesion: LUNG: ADENOMA, CARCINOMA
  carcinogen call: equivocal
Species: MOUSE, Strain/Sex: C57BL/FEMALE, Route: GAVAGE, Dose: 0, 300 MG/KG BW IN 0.1 ML OLIVE OIL FOR LIFE BEGINNING POST WEANING ADMINISTERED TO OFFSPRING OF FEMALES GIVEN 1350 MG/K
  carcinogen call: inactive; negative
Species: MOUSE, Strain/Sex: C57BL/FEMALE, Route: GAVAGE, Dose: 0, 300 MG/KG BW IN 0.1 ML OLIVE OIL ONCE ON DAY 17 OF PREGNANCY (STUDY DURATION: 120 WK)
  carcinogen call: inactive; negative
Species: MOUSE, Strain/Sex: C57BL/MALE, Route: GAVAGE, Dose: 0, 300 MG/KG BW IN 0.1 ML OLIVE OIL FOR LIFE BEGINNING POST WEANING ADMINISTERED TO OFFSPRING OF FEMALES GIVEN 300 MG/KG
  carcinogen call: inactive; negative
Species: MOUSE, Strain/Sex: CD-1/FEMALE, Route: INHALATION, Dose: 0, 20, 40, 80, 160 PPM IN CHAMBER FOR 6 HR/D 5D/WK FOR 98 WK (STUDY DURATION: 98 WK), Dose: 0, 20, 40, 80, 160 PPM IN CHAMBER FOR 6 HR/D 5D/WK FOR 98 WK (STUDY DURATION: 98 WK), Tumor Site: Type of Lesion: LUNG: BRONCHIOLOALVEOLAR ADENOMA, BRONCHIOLOALVEOLAR CARCINOMA
  carcinogen call: active; positive
Species: MOUSE, Strain/Sex: CD-1/MALE, Route: INHALATION, Dose: 0, 20, 40, 80, 160 PPM IN CHAMBER FOR 6 HR/D 5D/WK FOR 104 WK (STUDY DURATION: 104 WK), Dose: 0, 20, 40, 80, 160 PPM IN CHAMBER FOR 6 HR/D 5D/WK FOR 104 WK (STUDY DURATION: 104 WK), Tumor Site: Type of Lesion: LUNG: BRONCHIOLOALVEOLAR ADENOMA
  carcinogen call: active; positive
Species: MOUSE, Strain/Sex: O20/FEMALE, Route: GAVAGE, Dose: 0, 1350 MG/KG BW IN 0.1 ML OLIVE OIL FOR 16 WK POST WEANING ADMINISTERED TO OFFSPRING OF FEMALES GIVEN 1350 MG/KG ON DAY, Tumor Site: Type of Lesion: LUNG: ADENOMA OR CARCINOMA
  carcinogen call: active; positive
Species: MOUSE, Strain/Sex: O20/FEMALE, Route: GAVAGE, Dose: 0, 1350 MG/KG BW IN 0.1 ML OLIVE OIL ONCE ON DAY 17 OF PREGNANCY (STUDY DURATION: 120 WK)
  carcinogen call: inactive; negative
Species: MOUSE, Strain/Sex: O20/MALE,FEMALE, Route: GAVAGE, Tumor Site: Type of Lesion: LUNG: ADENOMA, ADENOCARCINOMA
  carcinogen call: active; positive
Species: MOUSE, Strain/Sex: O20/MALE, Route: GAVAGE, Dose: 0, 1350 MG/KG BW IN 0.1 ML OLIVE OIL FOR 16 WK POST WEANING ADMINISTERED TO OFFSPRING OF FEMALES GIVEN 1350 MG/KG ON DAY, Tumor Site: Type of Lesion: LUNG: ADENOMA OR CARCINOMA
  carcinogen call: active; positive
Species: MOUSE, Strain/Sex: STRAIN-A/FEMALE, Route: INTRAPERITONEAL, Dose: 0, 10 UMOL IN 0.1 ML OLIVE OIL 3/WK FOR 20 DOSES (TOTAL DOSE: 200 UMOL) (STUDY DURATION: 27 WK)
  carcinogen call: inactive; negative
Species: RAT, Strain/Sex: BDIV/FEMALE, Route: GAVAGE, Dose: 0, 500 MG/KG BW IN 0.3 ML OLIVE OIL FOR LIFE BEGINNING POST WEANING ADMINISTERED TO OFFSPRING OF FEMALES GIVEN 1350 MG/K
  carcinogen call: inactive; negative
Species: RAT, Strain/Sex: BDIV/FEMALE, Route: GAVAGE, Dose: 0, 1350 MG/KG BW IN 0.3 ML OLIVE OIL ONCE ON DAY 17 OF PREGNANCY (STUDY DURATION: 120 WK)
  carcinogen call: inactive; negative
Species: RAT, Strain/Sex: BDIV/MALE, Route: GAVAGE, Dose: 0, 500 MG/KG BW IN 0.3 ML OLIVE OIL FOR LIFE BEGINNING POST WEANING ADMINISTERED TO OFFSPRING OF FEMALES GIVEN 1350 MG/K
  carcinogen call: inactive; negative
Species: RAT, Strain/Sex: F344/FEMALE, Route: GAVAGE, Dose: 0, 500 MG/KG FOR 103 WK (STUDY DURATION: 104 WK), 1,000, 2,000 MG/KG FOR 78 WK (STUDY DURATION: 105 WK), Dose: 0, 500 MG/KG FOR 103 WK (STUDY DURATION: 104 WK), 1,000, 2,000 MG/KG FOR 78 WK (STUDY DURATION: 105 WK)
  carcinogen call: inactive; negative
Species: RAT, Strain/Sex: F344/MALE, Route: GAVAGE, Dose: 0, 500 MG/KG FOR 103 WK (STUDY DURATION: 104 WK), 1,000, 2,000 MG/KG FOR 78 WK (STUDY DURATION: 105 WK), Dose: 0, 500 MG/KG FOR 103 WK (STUDY DURATION: 104 WK), 1,000, 2,000 MG/KG FOR 78 WK (STUDY DURATION: 105 WK)
  carcinogen call: inactive; negative
Species: RAT, Strain/Sex: SPRAGUE-DAWLEY/FEMALE, Route: GAVAGE, Dose: 0, 50, 250 MG/KG BW IN OLIVE OIL 1/D 4-5 D/WK FOR 52 WK (STUDY DURATION: LIFETIME), Dose: 0, 50, 250 MG/KG BW IN OLIVE OIL 1/D 4-5 D/WK FOR 52 WK (STUDY DURATION: LIFETIME), Tumor Site: Type of Lesion: [BRAIN WAS ONLY SITE EVALUATED]
  carcinogen call: inactive; negative
Species: RAT, Strain/Sex: SPRAGUE-DAWLEY/FEMALE, Route: INHALATION, Dose: 0, 25, 50, 100, 200, 300 PPM 4 HR/D, 5 D/WK FOR 52 WK (STUDY DURATION: LIFESPAN), Dose: 0, 25, 50, 100, 200, 300 PPM 4 HR/D, 5 D/WK FOR 52 WK (STUDY DURATION: LIFESPAN), Tumor Site: Type of Lesion: MAMMARY GLAND: BENIGN TUMOR, MALIGNANT TUMOR
  carcinogen call: active; positive
Species: RAT, Strain/Sex: SPRAGUE-DAWLEY/FEMALE, Route: INHALATION, Dose: 0, 25, 50, 100, 200, 300 PPM IN AIR 4 HR/D 5 D/WK FOR 52 WK (STUDY DURATION: LIFETIME), Dose: 0, 25, 50, 100, 200, 300 PPM IN AIR 4 HR/D 5 D/WK FOR 52 WK (STUDY DURATION: LIFETIME), Tumor Site: Type of Lesion: [BRAIN WAS ONLY SITE EVALUATED]
  carcinogen call: inactive; negative
Species: RAT, Strain/Sex: SPRAGUE-DAWLEY/FEMALE, Route: INTRAGASTRIC, Dose: 0, 50, 250 MG/KG IN OLIVE OIL 1/D, 4-5 D/WK FOR 52 WK (STUDY DURATION: LIFESPAN), Dose: 0, 50, 250 MG/KG IN OLIVE OIL 1/D, 4-5 D/WK FOR 52 WK (STUDY DURATION: LIFESPAN)
  carcinogen call: inactive; negative
Species: RAT, Strain/Sex: SPRAGUE-DAWLEY/FEMALE, Route: INTRAPERITONEAL, Dose: 0, 50 MG/RAT IN OLIVE OIL, 1/2 MO FOR 8 MO (STUDY DURATION: LIFESPAN)
  carcinogen call: inactive; negative
Species: RAT, Strain/Sex: SPRAGUE-DAWLEY/FEMALE, Route: SUBCUTANEOUS, Dose: 0, 50 MG/RAT IN OLIVE OIL ONCE (STUDY DURATION: LIFESPAN)
  carcinogen call: inactive; negative
Species: RAT, Strain/Sex: SPRAGUE-DAWLEY/MALE, Route: GAVAGE, Dose: 0, 50, 250 MG/KG BW IN OLIVE OIL 1/D 4-5 D/WK FOR 52 WK (STUDY DURATION: LIFETIME), Dose: 0, 50, 250 MG/KG BW IN OLIVE OIL 1/D 4-5 D/WK FOR 52 WK (STUDY DURATION: LIFETIME), Tumor Site: Type of Lesion: [BRAIN WAS ONLY SITE EVALUATED]
  carcinogen call: inactive; negative
Species: RAT, Strain/Sex: SPRAGUE-DAWLEY/MALE, Route: INHALATION, Dose: 0, 25, 50, 100, 200, 300 PPM 4 HR/D, 5 D/WK FOR 52 WK (STUDY DURATION: LIFESPAN), Dose: 0, 25, 50, 100, 200, 300 PPM 4 HR/D, 5 D/WK FOR 52 WK (STUDY DURATION: LIFESPAN)
  carcinogen call: inactive; negative
Species: RAT, Strain/Sex: SPRAGUE-DAWLEY/MALE, Route: INHALATION, Dose: 0, 25, 50, 100, 200, 300 PPM IN AIR 4 HR/D 5 D/WK FOR 52 WK (STUDY DURATION: LIFETIME), Dose: 0, 25, 50, 100, 200, 300 PPM IN AIR 4 HR/D 5 D/WK FOR 52 WK (STUDY DURATION: LIFETIME), Tumor Site: Type of Lesion: [BRAIN WAS ONLY SITE EVALUATED]
  carcinogen call: inactive; negative
Species: RAT, Strain/Sex: SPRAGUE-DAWLEY/MALE, Route: INTRAGASTRIC, Dose: 0, 50, 250 MG/KG IN OLIVE OIL 1/D, 4-5 D/WK FOR 52 WK (STUDY DURATION: LIFESPAN), Dose: 0, 50, 250 MG/KG IN OLIVE OIL 1/D, 4-5 D/WK FOR 52 WK (STUDY DURATION: LIFESPAN)
  carcinogen call: inactive; negative
Species: RAT, Strain/Sex: SPRAGUE-DAWLEY/MALE, Route: INTRAPERITONEAL, Dose: 0, 50 MG/RAT IN OLIVE OIL, 1/2 MO FOR 8 MO (STUDY DURATION: LIFESPAN)
  carcinogen call: inactive; negative
Species: RAT, Strain/Sex: SPRAGUE-DAWLEY/MALE, Route: SUBCUTANEOUS, Dose: 0, 50 MG/RAT IN OLIVE OIL ONCE (STUDY DURATION: LIFESPAN)
  carcinogen call: inactive; negative
Species: RAT, Strain/Sex: STRAIN-CD/FEMALE, Route: INHALATION, Dose: 0, 50, 200, 500, 1000 PPM 6HR/D 5 D/WK FOR 104 WK (STUDY DURATION:107 WK), Dose: 0, 50, 200, 500, 1000 PPM 6HR/D 5 D/WK FOR 104 WK (STUDY DURATION:107 WK)
  carcinogen call: inactive; negative
Species: RAT, Strain/Sex: STRAIN-CD/MALE, Route: INHALATION, Dose: 0, 50, 200, 500, 1000 PPM 6 HR/D 5 D/WK FOR 104 WK (STUDY DURATION:107 WK), Dose: 0, 50, 200, 500, 1000 PPM 6 HR/D 5 D/WK FOR 104 WK (STUDY DURATION:107 WK)
  carcinogen call: inactive; negative
